Values of other authors in patent publication US20100209350A1, “Biomarkers for Adipose Tissue Activity” (priority 2008, published 2010).

Tested on: adiponectin
Conditions: patient responding to the therapy; sample such as blood; general statement, no study described

CN(C)C(=N)N=C(N)N [metformin]
increase of adiponectin level from a reference value: about 20%
